According to patent publication US11320422B2, “Inhibition of protein degradation for improved production” (LONZA LTD, priority 2016, dated 2022):
Several values for one entry are separate records, joined by “and”; a condition that tells them apart may be missing. Identical values can stand only once. Where a SMILES comes first, the peptide text is derived from it. The star is where a group is joined. Cbz = O=C(OCc1ccccc1)*

Assays:
[1] = test system: recombinant CHO antibody producing cell line (CH0149); assay: Initial assessment of inhibitor concentrations on recombinant CHO cell line growth (viable cell number, culture viability, ViCell); type: cell-based, Chinese hamster
Method: (§1) 96 deep well plates (Nunc) were seeded at 4×10^6 cells/ml at 300 μl per well for analysis of proteasome and ERAD inhibitors. Triplicate wells were prepared for each inhibitor for each of the panel of cell lines. […] 100 μl of the well volume was combined with 900 μl PBS and a cell count performed using the ViCell apparatus. The remaining 200 μl was centrifuged at 1000 rpm for 5 minutes and the supernatant and pellet stored at −20° C. prior to further analysis.
(§2) Initial assessment was performed across two experiments using one model recombinant CHO antibody producing cell line (CH0149) to determine the appropriate concentrations of each inhibitor to use for the assessment of the full panel (FIGS. 1A-1C and 2A-2F).

[2] = test system: GS KO Lonza host cells expressing cB72.3 monoclonal antibody; assay: Cell line construction with MSX plus proteasome or ERAD inhibitors (Example 6), cB72.3 titre by Octet and western blot; type: cell-based, Chinese hamster; details: for cell specific productivities compared to MSX control pools: MG-132 particularly 31.25 nM, various concentrations of epoxomicin and eeyarestatin; for monoclonal antibody titre higher than control pool: 31.25 nM MG-132 and 37.5 μM MSX, 168 h of batch culture
Method: Multiple electroporations with 20 μg of linearized GS cB72.3 monoclonal antibody containing construct with 1×10^7 viable GS KO Lonza host cells were performed and pooled. This pool was then set up into 10 ml cultures, each containing approximately 0.25×10^6 cells and 10 μg DNA, and immediately placed in a static incubator at 37° C. with 5% CO2. Cell media consisted of commercially available CD-CHO media without glutamine and the addition of MSX and inhibitors as outlined below. 24 hours post transfection, MSX was added to the media to make the culture volume up to 15 ml and provide a final MSX concentration of 37.5 μM. The different inhibitors were then added to the pools a further 24 hours after the addition of MSX. A range of concentrations were added for each inhibitor to give the final concentrations in the flasks as described in FIG. 13. Only one inhibitor treatment was performed per flask (no combined treatments) and all were performed in combination with 37.5 μM MSX as outlined in FIG. 13.
The cell pools were then left in the static incubator at 37° C. and 5% CO2 until the viable cell concentration in the flask reached ˜0.2×10^6 cells/ml. When this viable cell number was achieved, cell pools were moved into 125 mL Erlenmeyer shake flasks and cultured in a 20 mL volume of CD-CHO including MSX and the appropriate concentration of inhibitor at 37° C. under a 5% CO2 in air environment with shaking at 140 rpm. 24 out of 33 transfections/pools were eventually moved across to shake flasks as they exceeded the required viable cell concentration described above.
Cell pools were then cultured in the presence of the appropriate inhibitor (and inhibitor concentration and 37.5 μM MSX) in 20 mL of CD-CHO for several passages (each being seeded at 0.2×10^6 viable cells/ml) before batch cultures were set up for each to assess the growth of the pool and to sample for product concentration over the duration of culture. For this purpose 20 ml batch cultures (seeded at 0.2×10^6 viable cells/ml) were sampled at 48, 96 and 168 hours for growth and titre information. The cell pools were also then passaged for an additional two passages in the absence of the inhibitors (but containing MSX) to determine if any changes in growth or productivity were observed, i.e. were the improved culture titres only maintained if the inhibitor was continually present.

GS-KO CHO host cell line = assay: Host selection/adaptation in presence of inhibitors, then transient transfection with cB72.3 (Example 8); type: cell-based, Chinese hamster
Method: In order to ascertain if adapted/selected host cells with the ability to produce enhanced recombinant protein yields and quality could be generated by culturing the Lonza GS-KO CHO host cell line in the presence of the protein degradation inhibitors, the GS-KO host cell line was cultured in the presence of various protein degradation inhibitors for a series of passages. The host cell line was therefore cultured in 20 ml CD-CHO+6 mM glutamine+the appropriate inhibitors as outlined below in 125 ml Erlenmeyer shake flasks at 37° C. under a 5% CO2 in air environment with shaking at 140 rpm. At each passage the new culture was seeded at 0.2×10^6 viable cells/ml. Cells were passaged when the cell number exceeded 1×10^6 viable cells per mL.
However, cells in the presence of this concentration of MG132 were subjected to 4 passages at this concentration and then a further 2 in the absence of the drug. At this time there was sufficient cells for the transfection following passage of the cells without the drug (2nd experiment of the two) to be undertaken.
Transient transfection of the emerging cell host pools described above was then performed via electroporation with 20 μg of the model cB72.3 plasmid and 1×10^7 viable cells and the cells placed in 20 ml of fresh CD-CHO media plus 6 mM glutamine in 125 ml Erlenmeyer shake flasks and cultured at 37° C. under a 5% CO2 in air environment with shaking at 140 rpm. This was undertaken for the host cell pools that had been in the presence of the inhibitors continually and those that had been passaged for an additional two passages in the absence of the inhibitors. Samples were taken from these batch cultures to monitor growth and antibody titre at 48, 96 and 168 hours post-transfection.

ER translocation = details: in vivo; cited from earlier work
[3] = test system: CHOK1 GS-KO cells producing antibody A; assay: Cell line construction with MSX plus proteasome inhibitor selection (Example 5), growth and antibody concentration by ELISA / Protein A HPLC; type: cell-based, Chinese hamster
Method: The electroporation was performed in the GSKO suspension cell line. A count was performed of the culture in mid exponential phase and the remaining culture centrifuged at 1000 rpm and the supernatant removed. 1×10^7 cells were required per electroporation cuvette in a volume of 700 μl. Therefore, the pellet was resuspended to achieve the concentration of cells for the number of electroporations required. Electroporations were performed with 20 μg linearized plasmid at 300 V, a capacitance of 900 μF and using cuvettes with a 4 mm gap. Each cuvette was added to 20 ml of fresh media with 2 ml of that volume used to rinse out the cuvette. For the cell line construction experiment, then all electroporations were pooled together to give a final volume of 300 ml. This was thoroughly mixed and then distributed in 10 ml volumes between 30×T75 tissue culture flasks. The flasks were then incubated statically at 36.5° C. with 5% CO2. 24 hours after the transfection, the glutamine synthetase inhibitor (MSX) was added to provide selection of the cells successfully taking up the plasmid and expressing the selection marker GS. 5 ml volumes of the MSX stocks with CD-CHO media were added to give either a final culture concentration of either 25, 37.5 or 50 μM MSX. The addition of the proteasome inhibitors was then performed at the appropriate time-point following MSX selection as determined by the design of experiments layout detailed in Table 3. Filter sterilized DMSO was added as a control where no drug was required in the combinations. Cultures were then incubated statically at 36.5° C. and 5% CO2 for approximately two weeks following addition of MSX. […] Once a viable cell concentration of at least 0.2×10^6 cells/ml was achieved, the cultures were moved into 20 ml shake flask cultures at 36.5° C. and 5% CO2 with shaking at 140 rpm. From this point onwards routine sub-culture was performed every 3-4 days.
AffiniPure F(ab′)2 fragment goat anti-human IgG Fc fragment specific (minimal cross-reaction to bovine, horse, mouse serum proteins) (Jackson ImmunoResearch Laboratories Inc) was diluted in coating buffer (15 mM Na2CO3 and 35 mM NaHCO3, pH 9.7) to give a concentration of […]. 100 μl of the stock was then used to coat each well of 96 well plate (Nunc). Plates were covered with foil and stored at 4° C. overnight. […] Plates were again washed and ready-made TMB substrate (Cell signalling technology #7004) was added (100 μl/well). […] The optical density of each well was then measured at 450 nm. The concentration of the supernatant samples were then determined from the standard curve of the known concentrations of IgG. […]

[4] = Initial assessment of inhibitor concentrations on recombinant CHO cell line growth (viable cell number, culture viability, ViCell); type: cell-based, Chinese hamster; details: Chinese hamster
Method: as §1, §2

apoptosis = details: cited from earlier work
[5] = immediately after treatment with inhibitors
[6] = two passages in the absence of inhibitors
[7] = host initially cultured with Eeyarestatin I or 6.25 nM Epoxomicin, then 2 passages without inhibitor

SMILES: CC1(C)C(N(O)C(=O)Nc2ccc(Cl)cc2)N(c2ccc(Cl)cc2)C(=O)N1CC(=O)N/N=C/C=C/c1ccc([N+](=O)[O-])o1 (stereo not shown) [eeyarestatin I]
- decrease in viable cell number ([1]; 1 μM, 48 hours after addition, two experiments): 15-30%
- effect on the culture viability parameters ([1]; 10 μM, two experiments): consistently showed an effect
- cell specific productivities compared to MSX control pools [2, 5]: enhanced
- cell specific productivities compared to MSX control pools [2, 6]: enhanced
- cell specific productivity and titre (GS-KO CHO host cell line; 0.1 μM in culture media for selection/adaptation of host): increase in cell specific productivity and titre
- transient antibody titres versus DMSO control cells (GS-KO CHO host cell line; host cultured with 0.1 μM Eeyarestatin I before transfection): higher transient titres
- transient antibody titres versus DMSO control cells (GS-KO CHO host cell line; [7]): higher transient titres
- concentration sufficient to block ER translocation (ER translocation): 8 µM

SMILES: CC[C@H](C)[C@H](NC(=O)[C@H]([C@@H](C)CC)N(C)C(C)=O)C(=O)N[C@H](C(=O)N[C@@H](CC(C)C)C(=O)[C@@]1(C)CO1)[C@@H](C)O [epoxomicin]
- decrease in viable cell numbers ([1]; 0.05 μM, 48 hours after addition, two experiments): 30-50%
- detrimental effects over time ([1]; 0.01, 0.005 and 0.001 μM): not showing any detrimental effects until 72 hours
- viable cell number ([1]; 0.01, 0.005 and 0.001 μM): increase in viable cell number
- decrease in viable cell number ([1]; 0.5 and 1 μM, 48 hours after addition, compared to control): 90%
- increase in antibody concentration over control pools generated with MSX alone ([3]; 0.025 μM epoxomicin and 37.5 μM MSX, 192 hours of batch culture): 3-7 fold
- maximum viable cell number ([3]; pool CLC18 constructed with 0.025 μM epoxomicin and 37.5 μM MSX, batch culture without inhibitor): 5.328×10^6 cells/ml
- cell specific productivities compared to MSX control pools [2, 5]: enhanced
- cell specific productivities compared to MSX control pools [2, 6]: enhanced
- transient antibody titres versus DMSO control cells (GS-KO CHO host cell line; [7]): higher transient titres

SMILES: CC(C)C[C@@H](C=O)NC(=O)[C@H](CC(C)C)NC(=O)[C@H](CC(C)C)NC(=O)OCc1ccccc1 [MG-132, Z-Leu-Leu-Leu-al] (Cbz-Leu-Leu-Leu-aldehyde)
- cytotoxicity at 48 h ([4]; 0.5 and 1 μM, 48 hours after addition, compared to control, read-out: decrease in viable cell number): ~40%
- cytotoxicity at 0.5 μM ([4]; read-out: reduction of cell concentration and culture viability compared to control): 30 to 60%
- effect on culture viability and cell numbers ([1]; 0.1 μM): less of an effect
- reduction in the culture viability to ([1]; 0.5 and 1 μM, 48 hours after addition): approximately 50%
- cell numbers and culture viability ([1]; 5 and 10 μM, 48 hours after addition): dramatically reduced
- increase in the amount of antibody in cell culture supernatant over MSX alone pools ([3]; 0.0625 μM MG-132 and 37.5 μM MSX, 192 hours of batch culture): ~4 fold
- viable cell counts following electroporation and cell line construction ([3]; concentrations used in Example 2): poor viable cell counts
- monoclonal antibody titre higher than control pool ([2]; cells continually cultured with inhibitor): ~4 fold
- monoclonal antibody titre higher than control pool ([2]; two passages in the absence of inhibitor): ~4 fold
- final inhibitor concentrations that resulted in the emergence of cell pools ([2]; alongside 37.5 μM MSX): 15.625 nM and 31.25 nM
- cell specific productivities compared to MSX control pools [2, 5]: enhanced
- cell specific productivities compared to MSX control pools [2, 6]: enhanced
- host cell growth in presence of inhibitor (GS-KO CHO host cell line; 125 nM, transfection immediately after culture with drug): not sufficient cells
- concentration shown to induce apoptosis (apoptosis): 1.5 µM
